Patent US7858765B2, “OX40R binding agents” (Merck Serono SA, priority 2002, dated 2010)
Peptide text beside a SMILES is read from it.

Legend:
[1] = target: T1, OX40R-IgG1 (Homo sapiens, UniProt P43489); assay: Fluorescence quenching assay of OX40R-IgG1; format: binding
T1 construct: extracellular portion of human OX40R (amino acids 1-208 of SWISSPROT Acc. No P43489); human IgG1 constant region (hinge, CH2 and CH3); made in house; purified from the supernatant on protein G
T1 sequence (P43489 29-208): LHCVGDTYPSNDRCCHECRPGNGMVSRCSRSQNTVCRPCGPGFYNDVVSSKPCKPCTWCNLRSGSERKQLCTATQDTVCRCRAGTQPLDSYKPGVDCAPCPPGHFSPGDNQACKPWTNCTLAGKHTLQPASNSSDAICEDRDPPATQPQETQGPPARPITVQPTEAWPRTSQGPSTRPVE
Method: The fluorescence quenching assay was performed as previously described (Golabek A et al., 2000). OX40R-IgG1 (35 micrograms) was dissolved in 500 microliters of PBS and the fluorescence spectum was recorded at 295-420 nanometers with an excitation wavelength of 290 nanometers using a spectrofluorimeter (Perkin Elmer LS50B) with the slits set at 5 nanometers. Fluorescence spectra of human OX40R-IgG1 were then recorded in the presence of increasing concentrations (5-1000 nM) of P5 and P5-1 peptides after 15 minutes of equilibration. The fluorescence change at 336 nanometers was plotted versus peptide concentration and the resulting curves were analyzed by nonlinear regression fit with Prism® software (GraphPad).
The affinity of the peptides identified in Example 1 as inhibitor of OX40L-OX40R interaction was evaluated by fluorescence quenching spectroscopy, a technology allowing such measurements in solution, under native conditions and without beads or other supports. This method is based on monitoring the changes in the intrinsic fluorescence of a protein (OX40R-IgG1) upon its binding with another protein (P5 or P5-1). […]

[2] = target: T2, OX40L-OX40R interaction (OX40R-IgG1 / OX40L-CD8) (Homo sapiens, UniProt P43489); assay: Alphascreen-based competition assay (displacement of OX40L-CD8 from OX40R-IgG1); format: binding; details: for inhibition of binding of OX40R to OX40L (in words): Alphascreen-based competition assay
T2 sequence (P43489 29-208): T1 sequence (P43489 29-208)
Method: Alphascreen™ modified acceptor and donor beads were purchased (Biosignal Packard). OX40R-IgG1 and OX40L-CD8 fusion proteins were immobilized, respectively, onto protein A-conjugated acceptor beads and, by the means of a biotinylated anti-CD8 antibody, onto streptavidin-conjugated donor beads.
The binding assay was performed using Costar® 384-well white polystyrene plates (Corning). Each well of a 384-well plate contained a reaction mix having a volume of 25 microliters. Each of the five components of the reaction mix (OX40R-IgG1, OX40L-CD8, biotinylated anti-CD8, streptavidin-conjugated donor beads, and Protein A-conjugated acceptor beads) was added in a volume of 5 microliters. All dilutions were made in assay buffer (Phosphate Buffer Saline and 0.1% BSA), with or without dimethyl sulfoxide (DMSO).
In the standard assay, OX40-IgG1 and OX40L-CD8 were incubated together for 30 minutes, and then biotinylated anti-CD8 antibody (10 nM) was added. Following another incubation period of 30 minutes, streptavidin donor beads (20 μg/ml) and Protein A acceptor beads (20 μg/ml) were added to each individual well. The plate was counted 1 hour later using a Packard Fusion™ reader (Biosignal Packard) set at a read time of 1 second/well. Owing to the light sensitivity of the donor and acceptor beads, the experiments were carried out under blue light and all incubation periods were performed at room temperature. The plate was read at an excitation wavelength of 680 nanometers combined with a shorter emission wavelength of 520-620 nanometers.
All KD, IC50 and EC50 values were calculated using Prism® software (Graphpad Software). The transformation of IC50 values into Ki values was performed using the Cheng-Prusoff equation (Cheng Y C and Prusoff W H, 1973).
The ability of two known competitors of OX40L-OX40R interactions (untagged recombinant human soluble OX40L and suramin), which are themselves unable to generate an Alphascreen™ signal in this assay in absence of OX40L-CD8, to displace OX40L-CD8 from OX40R-IgG1 was investigated. The displacement experiments were performed, taking into consideration the approximate KD value, with a concentration of OX40L-CD8 (40 nM) that was 4 times greater than that of the OX40R-IgG1 (10 nM). Increasing concentrations of OX40L (3 μM-0.1 pM) or suramin (1 mM[…]1 nM) were added to a reaction mixture also containing OX40-IgG1 (10 nM) and OX40L-CD8 (40 nM). […] This latter value for suramin is similar to reported values for inhibition of TNF-α binding to the TNF receptor (Gray P W et al., 1990).
The soluble components (OX40-IgG1, OX40L-CD8 and biotinylated anti-CD8 antibody) were mixed at the concentration described before for the competition assays with OX40L and suramin (FIG. 4), together with various concentrations of each peptide in a 5 microliter volume into a first addition step. The streptavidin donor and Protein A acceptor beads were added 30 minutes later. The plates were incubated for 2 hours in the dark, at room temperature and with shaking, before reading at a long excitation wavelength of 680 nm combined with a shorter emission wavelength of 520-620 nanometers, as described in Example 1.

[3] = target: T3, OX40R (Homo sapiens, UniProt P43489); details: literature value; read-out: Kd of OX40L (homotrimer) for OX40R; cited from earlier work
T3 sequence (P43489 29-277): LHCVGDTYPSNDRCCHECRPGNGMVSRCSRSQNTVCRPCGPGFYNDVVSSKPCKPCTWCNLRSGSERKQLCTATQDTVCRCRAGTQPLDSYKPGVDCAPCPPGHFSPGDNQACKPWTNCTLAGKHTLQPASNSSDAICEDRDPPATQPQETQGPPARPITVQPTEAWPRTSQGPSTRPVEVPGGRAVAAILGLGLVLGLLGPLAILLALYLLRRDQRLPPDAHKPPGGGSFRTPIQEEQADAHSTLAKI

Molecule: CC[C@H](C)[C@H](NC(=O)[C@H](CC(N)=O)NC(=O)[C@@H](NC(=O)[C@H](CCC(=O)O)NC(=O)[C@H](CCC(N)=O)NC(=O)[C@H](CO)NC(=O)[C@H](Cc1ccccc1)NC(=O)[C@H](Cc1ccc(O)cc1)NC(=O)CN)C(C)C)C(=O)N[C@@H](CO)C(=O)O [P5-1, GYFSQEVNIS] (H-GYFSQEVNIS-OH; N-terminus and C-terminus assumed)
- Kd [1]: ~0.0246 µM

Molecule: CC[C@H](C)[C@H](N)C(=O)N[C@H](C(=O)N[C@@H](CC(N)=O)C(=O)N[C@@H](CS)C(=O)N[C@@H](CC(=O)O)C(=O)NCC(=O)N[C@@H](Cc1ccccc1)C(=O)N[C@@H](Cc1ccc(O)cc1)C(=O)N[C@@H](CC(C)C)C(=O)N[C@H](C(=O)N[C@@H](CO)C(=O)N[C@@H](CC(C)C)C(=O)N[C@@H](CCCCN)C(=O)NCC(=O)N[C@@H](Cc1ccc(O)cc1)C(=O)N[C@@H](Cc1ccccc1)C(=O)N[C@@H](CO)C(=O)N[C@@H](CCC(N)=O)C(=O)N[C@@H](CCC(=O)O)C(=O)N[C@H](C(=O)N[C@@H](CC(N)=O)C(=O)N[C@H](C(=O)N[C@@H](CO)C(=O)N[C@@H](CC(C)C)C(=O)N[C@@H](Cc1c[nH]cn1)C(=O)N[C@@H](Cc1ccc(O)cc1)C(=O)N[C@@H](CCC(N)=O)C(=O)N[C@@H](CCCCN)C(=O)N[C@@H](CC(=O)O)C(=O)N[C@@H](CCC(=O)O)C(=O)N[C@@H](CCC(=O)O)C(=O)O)[C@@H](C)CC)C(C)C)[C@@H](C)CC)[C@@H](C)CC [P5] (H-IINCDGFYLISLKGYFSQEVNISLHYQKDEE-OH; N-terminus and C-terminus assumed)
- inhibition of binding of OX40R to OX40L (in words) [2]: micromolar range

Molecule: Cc1ccc(C(=O)Nc2ccc(S(=O)(=O)O)c3cc(S(=O)(=O)O)cc(S(=O)(=O)O)c23)cc1NC(=O)c1cccc(NC(=O)Nc2cccc(C(=O)Nc3cc(C(=O)Nc4ccc(S(=O)(=O)O)c5cc(S(=O)(=O)O)cc(S(=O)(=O)O)c45)ccc3C)c2)c1 [suramin, Suramin, reference compound]
- IC50 ([2]; OX40-IgG1 10 nM, OX40L-CD8 40 nM, read-out: IC50 for competition of OX40L-CD8 binding): 79 µM
- Ki ([2]; OX40-IgG1 10 nM, OX40L-CD8 40 nM, read-out: Ki (Cheng-Prusoff from IC50)): 26.3 µM

Molecule: EKGFILTSQKEDEIMKVQNNSVIINCDGFYL (human OX40R binding peptides) [P4, peptide corresponding to amino acids 72-102 of human OX40L]
- inhibition of binding of OX40R to OX40L (in words) [2]: bind OX40R very poorly

Molecule: OX40L: recombinant human soluble OX40L, extracellular portion, prepared as GST fusion in baculovirus system; b9 value is for natural homotrimer
- Kd [3]: 0.0002 to 0.0004 µM
- -log IC50±SEM ([2]; OX40-IgG1 10 nM, OX40L-CD8 40 nM): 8.23±0.35
